{"source": "patent US20100209934A1", "about": "“METHOD OF IDENTIFYING AGENTS WHICH MODULATE THE ACTIVITY OF CALCIUM-ACTIVATED CHLORIDE CHANNEL” (SNU R&DB FOUNDATION, priority 2007, published 2010)", "key": {"[1]": {"system": "mANO1", "test": "FLIPR membrane potential (voltage-sensing fluorescence) assay in mANO1-stably expressing HEK cells", "type": "cell-based, mouse", "details": "for membrane potential change detected by fluorescent intensity: 100 μM ATP or 10 μM A23187, mANO1-stably expressing HEK cells, not seen in control HEK cells", "procedure": "The activity of the ANO1-stable cell line was characterized with a FLIPR® Membrane Potential assay kit (Molecular devices, Sunnyvale, Calif.) according to the manufacture's instructions. ANO1-stable cell lines were seeded into poly-D-lysine coated 96-well plates (50,000 cells/each well). One day after the plating, the cells were incubated with 50 μl Hank's balanced salt solution (HBSS) containing membrane potential dye for 40 min at 37° C. To test the activity of ANO1 stable cell line, 100·μM ATP or 10·μM A23187 (Sigma, St Louis, Mo., USA) was added to each well for 20 sec after starting detection. The fluorescence intensity was measured by a fluorometric imaging plate reader (FlexStation™ II, MolecularDevices). Membrane potential dye was excited at 530 nm, and the intensity of fluorescence emitted at 565 nm was measured.\nTo determine if ANO1 is applicable for high-throughput screening (HTS) analysis, we constructed a stable cell line that constitutively expresses mANO1 (Reference example 7). The mANO1 stable cell line was grown in wells of a 96-well plate. mANO1-stably expressing HEK cells were incubated with a voltage sensor fluorescent dye (FLIPR®-membrane potential assay kit, Molecular Device) to detect change in membrane potential when ANO1 is activated. When ANO1 is activated, Cl^− would flux out the cell to depolarize the membrane, which makes the fluorescence dye fluoresce. After wash out the fluorescent dye, 100 μM ATP was applied. […] Fluorescent intensity was detected at excitation 530 nm and emission 565 nm by FlexStation 2 (Molecular device). […] F/F0: ratio of fluorescence intensity. Pretreatment of 2APB, a known blocker of IP3 receptor, blocked the ATP induced-membrane potential change in ANO1-stably expressing HEK cells (FIG. 13C)."}, "[2]": {"system": "mANO1", "test": "Whole-cell current response to GPCR stimulation in HEK 293T cells co-transfected with mANO1 and a GPCR", "type": "cell-based, mouse", "procedure": "HEK 293T cells were transfected with pEGFP-N1 (control) (1.0 μg) or pEGFP-N-1-mANO1 (0.8˜1.0 μg) and/or any one of the GPCR cDNAs (1.0 μg) obtained in Reference Example 2, using a FuGENE® HD transfection reagent (Roche Diagnostics, Penzberg, Germany). Transfected cells were maintained in DMEM supplemented with heat inactivated 10% fetal bovine serum (GIBCO BRL, Rockville, Md.) and penicillin-streptomycin at 37 in a 5% CO2 humidified atmosphere. One or two days after transfection, transfected cells were used for biochemical and electrophysiological experiments.\n(§1) To form gigaseals, individual cell surfaces were touched with a ˜3 Mohm Sylgard-coated glass pipette with gentle suction, and the junction potential was then adjusted to 0 mV. The membrane in contact with the pipette was then ruptured by suction to form a whole cell. The pipette solution contained 140 mM NMDG-Cl, 2 mM MgCl2, 10 mM HEPES, 2 mM ATP, and 0.3 mM GTP adjusted to pH 7.2, and the bath solution contained 140 mM NMDG-Cl, 2 mM MgCl2 and 10 mM HEPES (pH 7.2). For ion selectivity experiments, 140 mM NMDG-Cl was replaced with equimolar NaCl, NaL NaBr, NaNO3, NaF, or Na-gluconate in the bath solution. To determine current-voltage relationships, voltage ramps from −80 or −100 mV to +80 or +100 mV were delivered for 350 ms, or voltage-pulses from −100 mV to +100 mV were delivered for 400 ms to whole cells. When mANO1 was activated by 300 nM intracellular Ca^2+, voltage-pulses of 2500 ms were delivered. Whole-cell currents were amplified using an Axopatch 200B amplifier (Molecular Device, Sunnyvale, Calif.) and stored in a personal computer after digitization by a Digidata 1440 (Molecular Device). For single-channel current recordings, cell-attached or inside-out patches were formed from gigaseals. The pipette and control bath solution contained 140 mM NMDG-Cl, 2 mM MgCl2 and 10 mM HEPES (pH 7.2). […] To create amplitude histograms, pClamp software (version 6.0, Molecular Device) was used to analyze open and closed single-channel current events. The half-amplitude algorithm was used to determine an open event. The minimum duration of an open event was set at 0.1 ms.\nUnder physiological conditions CaCCs are known to be activated by GPCR stimulation. Endothelin-1 is a powerful vasoconstrictor that depolarizes vascular smooth muscle by activating CaCCs (Klockner, U. & Isenberg, G., Pflugers Arch. 418, 168-75 (1991); and Salter, K. J. & Kozlowski, R. Z., J Pharmacol Exp Ther. 279, 1053-62 (1996)). Thus, mANO1 and endothelin receptor subtype A (ETAR) were transfected into HEK 293T cells, along with GFP for visual identification of transfected cells, in accordance with the method of Reference Example 5. Whole cells were used to test the current response of mANO1 to ETAR stimulation. Pipette and bath solutions contained 140 mM N-methyl D-glucamine (NMDG)-Cl, which permitted Cl^− to be used as the main charge carrier. The pipette solution was Ca^2+ free and contained no EGTA. […] In contrast, endothelin-1 evoked currents were minimal in HEK cells transfected with ETAR or control (GFP-transfected only) cells. When mANO1 was transfected alone, 50 nM endothelin-1 evoked appreciable currents; presumably because of the presence of endogenous endothelin receptors in HEK cells."}, "[3]": {"target": "T1, mANO1 (Mus musculus, UniProt Q8BHY3, S527P)", "T1 sequence (Q8BHY3 1-960 S527P)": "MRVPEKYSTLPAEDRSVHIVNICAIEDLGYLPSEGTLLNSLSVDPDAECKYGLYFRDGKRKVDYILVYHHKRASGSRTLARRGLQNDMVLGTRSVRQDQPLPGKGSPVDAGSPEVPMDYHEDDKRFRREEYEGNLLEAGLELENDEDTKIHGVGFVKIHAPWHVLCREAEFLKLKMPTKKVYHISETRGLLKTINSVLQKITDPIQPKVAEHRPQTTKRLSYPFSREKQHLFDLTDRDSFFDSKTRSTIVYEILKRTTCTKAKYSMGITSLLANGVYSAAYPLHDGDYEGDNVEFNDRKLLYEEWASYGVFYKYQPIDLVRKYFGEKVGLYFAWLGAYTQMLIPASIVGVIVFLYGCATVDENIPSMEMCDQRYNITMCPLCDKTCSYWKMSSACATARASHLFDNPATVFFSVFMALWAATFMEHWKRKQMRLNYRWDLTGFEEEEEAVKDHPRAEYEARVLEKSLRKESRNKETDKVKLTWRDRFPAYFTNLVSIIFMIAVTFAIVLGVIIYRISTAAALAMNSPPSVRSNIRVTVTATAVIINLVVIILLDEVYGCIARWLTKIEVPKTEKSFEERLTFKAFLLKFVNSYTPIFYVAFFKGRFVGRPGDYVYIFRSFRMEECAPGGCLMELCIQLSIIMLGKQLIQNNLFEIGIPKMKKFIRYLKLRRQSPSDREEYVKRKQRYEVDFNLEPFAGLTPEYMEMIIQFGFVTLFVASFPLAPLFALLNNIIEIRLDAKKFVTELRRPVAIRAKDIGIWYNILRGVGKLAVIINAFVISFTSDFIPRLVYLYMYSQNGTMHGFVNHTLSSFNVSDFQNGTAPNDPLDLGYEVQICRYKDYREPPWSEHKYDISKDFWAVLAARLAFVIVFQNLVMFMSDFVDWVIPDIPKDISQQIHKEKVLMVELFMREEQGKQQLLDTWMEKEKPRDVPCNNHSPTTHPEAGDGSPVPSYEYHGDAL", "test": "Ca2+ activation of macroscopic currents in inside-out patches from ANO1/ETAR-HEK cells", "type": "biochemical", "set-up": "expressed in transfected cells", "details": "for EC50: inside-out patches", "procedure": "A. Macroscopic current responses to repeated applications of Ca^2+ in various concentrations to the bath of inside-out patches isolated from mANO1-ETAR/HEK cells at holding potentials of −60 or +60 mV. Pipette and bath solution contained 140 mM NMDG-Cl.\nB. Dose-response relationship of mANO1 activation by Ca^2+. Current responses were normalized versus those observed at 10 μM (−60 mV, n=8) or 3 μM Ca^2+ (+60 mV, n=8). Data points were fitted to the Hill's equation. (Error bars=Mean±S.E.M)\nas §1\nCa^2+ in various concentrations applied to the bath (intracellular side) evoked macroscopic […] currents in a dose-dependent manner (Ehold=−60 mV) (FIG. 7A). […] The threshold concentration of Ca^2+ reached about 0.3 μM at −60 mV holding potential (FIG. 7B). Remarkably, ANO1 activation by Ca^2+ was voltage-dependent, which is also characteristic of endogenous CaCCs (Nilius, B. et al., Cell Calcium 22, 53-63 (1997), Kuruma, A. & Hartzell, H. C., J Gen Physiol 115, 59-80 (2000), Evans, M. G. & Marty, A., J Physiol 378, 437-60 (1986)). At a depolarized membrane potential (+60 mV), ANO1 was more sensitive to Ca^2+ and the concentration-response curve shifted to the left, resulting in an EC50 of 0.4 μM (FIG. 7B). Hill's coefficients of the concentration-response curves were 2.0 and 2.4 at −60 and +60 mV, respectively."}, "[4]": {"system": "hANO1", "test": "Current recording in hANO1/ETAR-HEK cells", "type": "cell-based, human", "details": "50 nM endothelin-1", "text": "The hANO1 (human TMEM16A; NM_018043, GI: 40354209) was cloned from human trachea total RNAs (Clontech, Palo Alto, Calif.) by PCR method using following primers; forward primer 5′-CTCGAGGCCACCATGAGGGTCAACGAGAAGTACTC-3′ (SEQ ID NO: 8) and reverse primer 5′-GGTACCCTACAGGACGCCCCCGTGGTAG-3′ (SEQ ID NO: 9). The PCR product was cut with XhoI and KpnI, and then inserted into XhoI/KpnI site of pSDTF or pEGFP-N1.\nTo form gigaseals, individual cell surfaces were touched with a ˜3 Mohm Sylgard-coated glass pipette with gentle suction, and the junction potential was then adjusted to 0 mV. The membrane in contact with the pipette was then ruptured by suction to form a whole cell. The pipette solution contained 140 mM NMDG-Cl, 2 mM MgCl2, 10 mM HEPES, 2 mM ATP, and 0.3 mM GTP adjusted to pH 7.2, and the bath solution contained 140 mM NMDG-Cl, 2 mM MgCl2 and 10 mM HEPES (pH 7.2). For ion selectivity experiments, 140 mM NMDG-Cl was replaced with equimolar NaCl, NaL NaBr, NaNO3, NaF, or Na-gluconate in the bath solution. To determine current-voltage relationships, voltage ramps from −80 or −100 mV to +80 or +100 mV were delivered for 350 ms, or voltage-pulses from −100 mV to +100 mV were delivered for 400 ms to whole cells. When mANO1 was activated by 300 nM intracellular Ca^2+, voltage-pulses of 2500 ms were delivered. […]"}}, "note": "Read-outs that look alike come from different tables or passages of the source."}
{"compound": "NCCOB(c1ccccc1)c1ccccc1", "note": "[2APB]", "values": [{"measurement": "block of ATP induced-membrane potential change", "setting": "[1]; pretreatment of 2APB, ANO1-stably expressing HEK cells", "value": "blocked"}]}
{"compound": "CNc1ccc2oc(C[C@H]3O[C@@]4(CC[C@H]3C)O[C@H]([C@H](C)C(=O)c3ccc[nH]3)[C@H](C)C[C@H]4C)nc2c1C(=O)O", "note": "[A23187]", "values": [{"measurement": "membrane potential change detected by fluorescent intensity", "setting": "[1]", "value": "evoked membrane potential change"}]}
{"compound": "Nc1ncnc2c1ncn2[C@@H]1O[C@H](COP(=O)(O)OP(=O)(O)OP(=O)(O)O)[C@@H](O)[C@H]1O", "note": "[ATP]", "values": [{"measurement": "membrane potential change detected by fluorescent intensity", "setting": "[1]", "value": "evoked robust change in membrane potentials"}, {"measurement": "inward currents activated by ATP", "setting": "[2]; ATP 100 μM, mANO1 co-transfected with P2Y2R in HEK 293T cells, Ehold −60 mV", "value": "Large inward currents"}]}
{"compound": "[Ca+2]", "note": "[Ca^2+]", "values": [{"measurement": "Hill's coefficient of concentration-response curve", "setting": "[3]; +60 mV", "value": 2.4}, {"measurement": "EC50", "setting": "[3]; depolarized membrane potential +60 mV, read-out: EC50 for ANO1 activation", "value": 0.4, "unit": "µM"}, {"measurement": "EC50", "setting": "[3]; holding potential −60 mV, read-out: half-maximal concentration (EC50) for ANO1 activation", "value": 2.6, "unit": "µM"}, {"measurement": "Hill's coefficient of concentration-response curve", "setting": "[3]; −60 mV", "value": 2.0}, {"measurement": "threshold concentration for ANO1 activation", "setting": "[3]; −60 mV holding potential", "value": "about 0.3 μM"}]}
{"compound": "endothelin-1 (CSCSSLMDKECVYFCHLDIIW) [powerful vasoconstrictor; ligand of endothelin receptor subtype A (ETAR)]", "values": [{"measurement": "endothelin-1 evoked Cl− currents", "setting": "[4]", "value": "evoked large Cl^− currents"}, {"measurement": "endothelin-1 evoked inward currents", "setting": "[2]; 50 nM endothelin-1, mANO1-ETAR/HEK cells, whole cell, membrane potential −60 mV", "value": "evoked robust inward currents"}, {"measurement": "second responses relative to first responses (tachyphylaxis)", "setting": "[2]; 50 nM endothelin-1 applied twice with a 5 min interval, ANO1/ETAR-HEK cells, n=12, no blocker", "value": "87.1±11.4", "unit": "%"}]}
